Measured values: ChEMBL document CHEMBL1139587, “Synthesis of an N-acyl sulfamate analog of luciferyl-AMP: a stable and potent inhibitor of firefly luciferase” (Bioorg Med Chem Lett, 2005)

T1: Luciferin 4-monooxygenase (Luciola lateralis, UniProt Q01158)
T1 sequence (Q01158 whole entry): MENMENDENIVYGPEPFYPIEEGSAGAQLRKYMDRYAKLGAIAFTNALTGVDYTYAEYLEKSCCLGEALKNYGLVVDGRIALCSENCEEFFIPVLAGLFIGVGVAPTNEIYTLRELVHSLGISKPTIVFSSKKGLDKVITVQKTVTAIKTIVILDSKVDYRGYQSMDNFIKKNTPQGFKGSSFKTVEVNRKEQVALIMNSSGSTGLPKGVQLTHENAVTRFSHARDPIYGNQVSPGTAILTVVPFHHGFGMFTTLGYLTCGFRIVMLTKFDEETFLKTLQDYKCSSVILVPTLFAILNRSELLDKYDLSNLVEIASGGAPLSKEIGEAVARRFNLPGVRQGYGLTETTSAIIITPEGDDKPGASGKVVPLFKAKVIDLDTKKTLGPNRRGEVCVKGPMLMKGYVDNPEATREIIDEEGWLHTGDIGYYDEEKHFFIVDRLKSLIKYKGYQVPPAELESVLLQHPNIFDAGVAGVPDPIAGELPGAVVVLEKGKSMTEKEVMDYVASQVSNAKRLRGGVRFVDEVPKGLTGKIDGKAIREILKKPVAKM

B1: Luciferin 4-monooxygenase (Luciola lateralis), Q01158 (protein)
chain: T1 sequence (Q01158 whole entry)

What was measured:
[1] = target: T1, Luciferin 4-monooxygenase; experiment: Inhibition constant against luciferase with respect to natural substrate luciferin; design: species or system Aquatica lateralis
[2] = target: T1, Luciferin 4-monooxygenase; experiment: Inhibition constant against luciferase with respect to luciferyl-adenylate; design: species or system Aquatica lateralis
[3] = target: T1, Luciferin 4-monooxygenase; experiment: Inhibition constant against luciferase with respect to natural substrate Mg-ATP; design: species or system Aquatica lateralis
[4] = substrate: Nc1ncnc2c1ncn2C1O[C@H](COP(=O)(O)OC(=O)c2csc(-c3nc4ccc(O)cc4s3)n2)[C@@H](O)[C@H]1O; experiment: Binding affinity against luciferase; settings: Aquatica lateralis

| Molecule | Ki [1] [nM] | Ki [2] [nM] | Ki [3] [nM] | Km [4] [µM] |
| --- | --- | --- | --- | --- |
| Nc1ncnc2c1ncn2[C@@H]1O[C@H](COS(=O)(=O)NC(=O)c2csc(-c3nc4ccc(O)cc4s3)n2)[C@@H](O)[C@H]1O | 34 | 340 | 41 |  |
| B1 |  |  |  | 4.7 |
